Drawing on patent US20240109893A1, “PREPARATION AND APPLICATION METHOD OF HETEROCYCLIC COMPOUNDS AS KRAS INHIBITOR” (SHANGHAI KECHOW PHARMA, INC., priority 2020, published 2024), this text covers IC50 for twelve compounds.

The subject of the first assay is H358 cells. Kind of assay: Cell activity experiment: activity test of H358 cells (MTT, 5 days). Format: cell-based. The conditions noted are these: 5 days incubation, absorbance 492 nm. Put shortly:
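Viability was read by MTT: 4 h dye incubation, DMSO solubilisation, absorbance at 492 nm. This followed 5 days' treatment (37° C., 5% CO2) of H358 cells, pre-grown 24 h, with eight-point 3-fold dilutions up to 10000 nM final, 0.5% DMSO final, triplicate wells.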
In the case of `C=C(F)C(=O)N1CCN(c2nc(OC[C@@]34CCCN3C[C@H](F)C4)nc3c(F)c(-c4cccc5c4CC4CC54)ccc23)C[C@@H]1CC#N` (single isomer, unassigned) [Example 888], half-maximal inhibition (IC50) required 292 nM.

Take `C=CC(=O)N1CCN(c2nc(OC[C@@H]3CCCN3C)nc3c(F)c(-c4cccc5c4CC4CC54)ccc23)C[C@@H]1CC#N` (single isomer, unassigned) [Example 882]: inhibition was half-maximal at 550 nM (IC50).

Still in this assay, the particulars now being: Homo sapiens, NCI-H358, 120 h, 5 days incubation, absorbance 492 nm.
Turning to `C=CC(=O)N1CCN(c2nc(OC[C@@H]3CCCN3C)nc3cc(-c4cccc5c4CCCC5)ccc23)C[C@@H]1CC#N` [Example 110, 2-((S)-1-acryloyl-4-(2-(((S)-1-methylpyrrolidin-2-yl)methoxy)-7-(5,6,7,8-tetrahydronaphthalen-1-yl)quinazolin-4-yl)piperazin-2-yl)acetonitrile], the IC50 (in general, the midpoint of a concentration-inhibition curve) amounted to 35 nM. The compound `C=CC(=O)N1CCN(c2nc(OC[C@@H]3CCCN3C)nc3cc(-c4cccc5c4CCCC5)c(Cl)cc23)C[C@@H]1CC#N` [Example 75, 2-((S)-1-acryloyl-4-(6-chloro-2-(((S)-1-methylpyrrolidin-2-yl)methoxy)-7-(5,6,7,8-tetrahydronaphthalen-1-yl)quinazolin-4-yl)piperazin-2-yl)acetonitrile] returned an IC50 of 86 nM. Same read-out and setting: under `C=CC(=O)N1CCN(c2nc(OCC34CCCN3C[C@H](F)C4)nc3cc(-c4cncc5c4CCCC5)ccc23)C[C@@H]1CC#N` (stereo partly drawn) [Example 148] stands 5 nM; under `C=CC(=O)N1CCN(c2nc(OC[C@@H]3C[C@@H](F)CN3C)nc3cc(-c4cccc5c4CCCC5)c(Cl)cc23)C[C@@H]1CC#N` [Example 467], 80 nM. Same read-out and setting: the figure for `C=CC(=O)N1CC[C@@H]2[C@H]1CN2c1nc(OCC23CCCN2CCC3)nc2c(F)c(-c3ccc(F)c4c3CCCC4)ncc12` [Example 29] is 10 nM; for `C=C(F)C(=O)N1CCN(c2nc(OC[C@@]34CCCN3C[C@H](F)C4)nc3c(F)c(-c4cccc5c4[C@@H]4C[C@@H]4C5)ncc23)C[C@@H]1CC#N` [Example 72] it is 8 nM. The compound `C=C(F)C(=O)N1CC[C@@H]2[C@H]1CN2c1nc(OC[C@@H]2CCCN2C)nc2c(F)c(-c3cncc4c3CCCC4)ncc12` [Example 42, 2-fluoro-1-(((1R,5R)-6-(8-fluoro-2-(((S)-1-methylpyrrolidin-2-yl)methoxy)-7]-(5,6,7,8-tetrahydroisoquinolin-4-yl)pyridino[4,3-d]pyrimidin-4-yl)-2,6-diazabicyclo[3.2.0]hept-2-yl)prop-2-en-1-one] had an IC50 of 35 nM. `C=CC(=O)N1CCN(c2nc(OC[C@@H]3CCCN3C)nc3c(F)c(-c4cccc5c4CC(C)C5)ncc23)C[C@@H]1CC#N` (stereo partly drawn) [Example 60, 2-((2S)-1-acryloyl-4-(8-fluoro-7-(2-methyl-2,3-dihydro-1H-inden-4-yl)-2-(((S)-1-methylpyrrolidin-2-yl)methoxy)pyridino[4,3-d]pyrimidin-4-yl)piperazin-2-yl)acetonitrile] gave an IC50 of 70 nM. Compound `C=C(F)C(=O)N1CC[C@@H]2[C@H]1CN2c1nc(OC[C@@]23CCCN2C[C@H](F)C3)nc2c(F)c(-c3cccc4c3CCCC4)ncc12` [Example 16] had an IC50 of 5 nM. As for `C=C(F)C(=O)N1CCN(c2nc(OC[C@@H]3CCCN3C)nc3c(F)c(-c4cccc5c4[C@H]4C[C@H]4C5)ncc23)C[C@@H]1CC#N` [Example 57, 2-((S)-4-(8-fluoro-2-(((S)-1-methylpyrrolidin-2-yl)methoxy)-7-((1aS,6aS)-1,1a,6,6a-tetrahydrocyclopropa[a]inden-2-yl)pyridino[4,3-d]pyrimidin-4-yl)-1-(2-fluoroacryloyl)piperazin-2-yl)acetonitrile], 150 nM corresponded to half-maximal inhibition (IC50). Compared with the last compound, the IC50 is about 30-fold higher.
